Test results: patent publication US8012956B2, “Tropane compounds” (Exelixis, Inc., priority 2007, dated 2011)

Target: HSP90 (Homo sapiens, UniProt P07900)
Assay: HSP90 inhibition (HSP90 IC50)
Type: biochemical

Structure (SMILES) | IC50 [nM]
CC(=O)c1ccc(N2C3CCC2CC(NC(=O)c2ccc(C(N)=O)c(N[C@H]4CCOC4)c2)C3)nc1 (stereo partly drawn) [N4-[8-(5-acetylpyridin-2-yl)-8-azabicyclo[3.2.1]oct-3-endo-yl]-2-[(3S)-tetrahydrofuran-3-ylamino]benzene-1,4-dicarboxamide] | < 500
CC(=O)c1ccc(N2[C@@H]3CC[C@H]2C[C@@H](NC(=O)c2ccc(C(N)=O)c(NCC4CC4)c2)C3)nc1 [N4-[8-(5-acetylpyridin-2-yl)-8-azabicyclo[3.2.1]oct-3-endo-yl]-2-[(cyclopropylmethyl)amino]benzene-1,4-dicarboxamide] | < 500
CC(=O)c1ccc(N2[C@@H]3CC[C@H]2C[C@@H](NC(=O)c2ccc(C(N)=O)c(NCc4ccccc4)c2)C3)nc1 [N4-[8-(5-acetylpyridin-2-yl)-8-azabicyclo[3.2.1]oct-3-endo-yl]-2-[(phenylmethyl)amino]benzene-1,4-dicarboxamide] | 500 to 999
CC(=O)c1ccc(N2[C@@H]3CC[C@H]2C[C@@H](NC(=O)c2ccc(C(N)=O)c(NCC4CCNC4)c2)C3)nc1 (stereo partly drawn) [N4-[8-(5-acetylpyridin-2-yl)-8-azabicyclo[3.2.1]oct-3-endo-yl]-2-[(pyrrolidin-3-ylmethyl)amino]benzene-1,4-dicarboxamide] | < 500
CC(=O)c1ccc(N2[C@@H]3CC[C@H]2C[C@@H](NC(=O)c2ccc(C(N)=O)c(NCC4CCCO4)c2)C3)nc1 (stereo partly drawn) [N4-[8-(5-acetylpyridin-2-yl)-8-azabicyclo[3.2.1]oct-3-endo-yl]-2-[(tetrahydrofuran-2-ylmethyl)amino]benzene-1,4-dicarboxamide] | < 500
CC(=O)c1ccc(N2C3CCC2CC(NC(=O)c2ccc(C(N)=O)c(N[C@H]4CC[C@H](O)CC4)c2)C3)nc1 (stereo partly drawn) [N4-[8-(5-acetylpyridin-2-yl)-8-azabicyclo[3.2.1]oct-3-endo-yl]-2-[(trans-4-hydroxycyclohexyl)amino]benzene-1,4-dicarboxamide] | < 500
CC(=O)c1ccc(N2[C@@H]3CC[C@H]2C[C@@H](NC(=O)c2ccc(C(N)=O)c(N)c2)C3)nc1 [N4-[8-(5-acetylpyridin-2-yl)-8-azabicyclo[3.2.1]oct-3-endo-yl]-2-aminobenzene-1,4-dicarboxamide] | 500 to 999
CC(=O)c1ccc(N2[C@@H]3CC[C@H]2C[C@@H](NC(=O)c2ccc(C(N)=O)c(N4CCC4)c2)C3)nc1 [N4-[8-(5-acetylpyridin-2-yl)-8-azabicyclo[3.2.1]oct-3-endo-yl]-2-azetidin-1-ylbenzene-1,4-dicarboxamide] | 2000 to 10000
CC(=O)c1ccc(N2[C@@H]3CC[C@H]2C[C@@H](NC(=O)c2ccc(C(N)=O)c(Br)c2)C3)nc1 [N4-[8-(5-acetylpyridin-2-yl)-8-azabicyclo[3.2.1]oct-3-endo-yl]-2-bromobenzene-1,4-dicarboxamide] | < 500
COc1ccc(Nc2cc(C(=O)N[C@H]3C[C@H]4CC[C@@H](C3)N4c3ccc(C(C)=O)cn3)ccc2C(N)=O)cc1OCCN(C)C [N4-[8-(5-acetylpyridin-2-yl)-8-azabicyclo[3.2.1]oct-3-endo-yl]-2-{[3-{[2-(dimethylamino)ethyl]oxy}-4-(methyloxy)phenyl]amino}benzene-1,4-dicarboxamide] | < 500
CC[C@H](C)Nc1cc(C(=O)NC2CC3CCC(C2)N3c2ccc(C(C)=O)cn2)ccc1C(N)=O (stereo partly drawn) [N4-[8-(5-acetylpyridin-2-yl)-8-azabicyclo[3.2.1]oct-3-endo-yl]-2-{[(1S)-1-methylpropyl]amino}benzene-1,4-dicarboxamide] | < 500
CC(=O)c1ccc(N2[C@@H]3CC[C@H]2C[C@@H](NC(=O)c2ccc(C(N)=O)c(NC4CCNC4)c2)C3)nc1 (stereo partly drawn) [N4-[8-(5-acetylpyridin-2-yl)-8-azabicyclo[3.2.1]oct.3-endo-yl]-2-(pyrrolidin-3-ylamino)benzene-1,4-dicarboxamide] | < 500
NC(=O)c1ccc(C(=O)N[C@H]2C[C@H]3CC[C@@H](C2)N3c2ccc(C(=O)CCC3CCCCC3)cn2)cc1NCC1CC1 [N4-{8-[5-(3-cyclohexylpropanoyl)pyridin-2-yl]-8-azabicyclo[3.2.1]oct-3-endo-yl}-2-[(cyclopropylmethyl)amino]benzene-1,4-dicarboxamide] | 1000 to 2000
NC(=O)c1ccc(N2[C@@H]3CC[C@H]2C[C@@H](NC(=O)c2ccc(C(N)=O)c(NC4CCC4)c2)C3)nc1 [N4-{8-[5-(aminocarbonyl)pyridin-2-yl]-8-azabicyclo[3.2.1]oct-3-endo-yl}-2-(cyclobutylamino)benzene-1,4-dicarboxamide] | < 500
NC(=O)c1ccc(N2[C@@H]3CC[C@H]2C[C@@H](NC(=O)c2ccc(C(N)=O)c(OCCN4CCOCC4)c2)C3)nc1 [N4-{8-[5-(aminocarbonyl)pyridin-2-yl]-8-azabicyclo[3.2.1]oct-3-endo-yl}-2-[(2-morpholin-4-ylethyl)oxybenzene-1,4-dicarboxylate] | 1000 to 2000
NC(=O)c1ccc(N2C3CCC2CC(NC(=O)c2ccc(C(N)=O)c(N[C@H]4CC[C@H](O)CC4)c2)C3)nc1 (stereo partly drawn) [N4-{8-[5-(aminocarbonyl)pyridin-2-yl]-8-azabicyclo[3.2.1]oct-3-endo-yl}-2-[(4-hydroxycyclohexyl)amino]benzene-1,4-dicarboxamide] | < 500
NC(=O)c1ccc(N2C3CCC2CC(NC(=O)c2ccc(C(N)=O)c(N[C@H]4CC[C@H](N)CC4)c2)C3)nc1 (stereo partly drawn) [N4-{8-[5-(aminocarbonyl)pyridin-2-yl]-8-azabicyclo[3.2.1]oct-3-endo-yl}-2-[(trans-4-aminocyclohexyl)amino]benzene-1,4-dicarboxamide] | < 500
COCCNc1cc(C(=O)N[C@H]2C[C@H]3CC[C@@H](C2)N3c2ccc(C(N)=O)cn2)ccc1C(N)=O [N4-{8-[5-(aminocarbonyl)pyridin-2-yl]-8-azabicyclo[3.2.1]oct-3-endo-yl}-2-{[2-(methyloxy)ethyl]amino}benzene-1,4-dicarboxamide] | < 500
CS(=O)(=O)CCNc1cc(C(=O)N[C@H]2C[C@H]3CC[C@@H](C2)N3c2ccc(C(N)=O)cn2)ccc1C(N)=O [N4-{8-[5-(aminocarbonyl)pyridin-2-yl]-8-azabicyclo[3.2.1]oct-3-endo-yl}-2-{[2-(methylsulfonyl)ethyl]amino}benzene-1,4-dicarboxamide] | < 500
COc1ccc(Nc2cc(C(=O)N[C@H]3C[C@H]4CC[C@@H](C3)N4c3ccc(C(N)=O)cn3)ccc2C(N)=O)cc1OCCN(C)C [N4-{8-[5-(aminocarbonyl)pyridin-2-yl]-8-azabicyclo[3.2.1]oct-3-endo-yl}-2-{[3-{[2-(dimethylamino)ethyl]oxy}-4-(methyloxy)phenyl]amino}benzene-1,4-dicarboxamide] | < 500
NC(=O)c1ccc(C(=O)N[C@H]2C[C@H]3CC[C@@H](C2)N3c2ccc(C(=O)C3CCC3)cn2)cc1NCC1CC1 [N4-{8-[5-(cyclobutylcarbonyl)pyridin-2-yl]-8-azabicyclo[3.2.1]oct-3-endo-yl}-2-[(cyclopropylmethyl)amino]benzene-1,4-dicarboxamide] | 1000 to 2000
NC(=O)c1ccc(C(=O)N[C@H]2C[C@H]3CC[C@@H](C2)N3c2ccc(C(=O)C3CCCC3)cn2)cc1NCC1CC1 [N4-{8-[5-(cyclopentylcarbonyl)pyridin-2-yl]-8-azabicyclo[3.2.1]oct-3-endo-yl}-2-[(cyclopropylmethyl)amino]benzene-1,4-dicarboxamide] | 2000 to 10000
